Data from patent publication US11033535B2, “Oxadiazoles and thiadiazoles as TGF-β inhibitors” (Southern Research Institute, priority 2017, dated 2021).
Where two headings read alike, the source gives them in different places.

Assay: Pharmacokinetic evaluation following a single oral and intravenous administration
Type: in vivo, CD1 mouse
Conditions: for concentration at 1 h / concentration at 2 h / concentration at 4 h / concentration at 8 h / concentration at 24 h / AUC(0-inf) / AUC(0-t) / Cmax / MRT inf / half-life: CD1, mouse, plasma, po, 5 mg/kg; for concentration at 1 h / concentration at 2 h / concentration at 4 h / concentration at 8 h / concentration at 24 h: Table 5, PO Dose: 5 mg/kg
Description: A NMP stock solution was prepared by adding 1.136 mL of NMP to 5.68 mg of compound no. 42140 with vortexing and sonification, to obtain a solution with a concentration at 5 mg/mL of 42140:01. Next, to prepare an intravenous formulation, 0.100 mL of the 5 mg/mL stock solution was placed in a new vial. 0.100 mL of NMP and 0.400 mL of PEG400 were added with vortexing and sonification, followed by addition of 0.400 mL of saline with vortexing and sonification. […] 42140:01. Alternatively, to prepare an oral formulation, 0.200 mL of the 5 mg/mL stock solution was placed in a new vial. 0.400 mL of PEG400 was added with vortexing and sonification, followed by addition of 0.400 mL of saline with vortexing and sonifiction. […] 42140:01.
(§1) Briefly, the desired serial concentrations of working solutions were achieved by diluting a stock solution of the compound with 100% acetonitrile. 3 μL of working solutions (5, 10, 20, 50, 100, 500, 1000, 5000, 10000 ng/mL) were added to 30 μL of the blank CD1 mouse plasma to achieve calibration standards of 0.5-1000 ng/mL (0.5, 1, 2, 5, 10, 50, 100, 500, 1000 ng/mL) in a total volume of 33 μL. Five quality control samples at 1 ng/mL, 2 ng/mL, 5 ng/mL, 50 ng/mL and 800 ng/mL for plasma were prepared independently of those used for the calibration curves. These QC samples were prepared on the day of analysis in the same way as calibration standards.
Next, 33 μL standards, 33 μL QC samples, and 33 μL unknown samples (30 μL plasma with 3 μL blank solution) were added to 200 μL of acetonitrile containing IS mixture for precipitating protein, respectively. Then the samples were vortexed for 30 s. After centrifugation at 4 degree Celsius, 4000 rpm for 15 min, 3 μL of supernatant was injected into the LC/MS/MS system for quantitative analysis.
HPLC analysis was performed using 100% water with 0.1% formic acid (Solution A) and 100% acetonitrile with 0.1% formic acid (Solution B) with a flow rate of 0.6 mL/min.
A NMP stock solution was prepared by adding 2.092 mL of NMP to 10.46 mg of […] with vortexing and sonification, to obtain a solution with a concentration at 5 mg/mL of […]. Next, to prepare an intravenous formulation, 0.100 mL of the 5 mg/mL stock solution was placed in a new vial. 0.100 mL of NMP and 0.400 mL of PEG400 were added with vortexing and sonification, followed by addition of 0.400 mL of saline with vortexing and sonification. […] 42320:01. Alternatively, to prepare an oral formulation, 0.200 mL of the 5 mg/mL stock solution was placed in a new vial. 0.400 mL of PEG400 was added with vortexing and sonification, followed by addition of 0.400 mL of saline with vortexing and sonifiction. […] 42320:01.
as §1, with “50 ng/mL,” for “50 ng/mL”

[1] = Mouse 5, read-out: Concentration
[2] = Mouse 6, read-out: Concentration
[3] = mean, read-out: Concentration, Mean
[4] = Mouse 4, read-out: Concentration
[5] = Table 4, IV Dose: 1 mg/kg, Mouse 1
[6] = Table 4, IV Dose: 1 mg/kg, Mouse 2
[7] = Table 4, IV Dose: 1 mg/kg, Mouse 3
[8] = Table 4, IV Dose: 1 mg/kg, mean
[9] = Table 6, PO Dose: 5 mg/kg, Mouse 4
[10] = Table 6, PO Dose: 5 mg/kg, Mouse 5
[11] = Table 6, PO Dose: 5 mg/kg, Mouse 6
[12] = Table 6, PO Dose: 5 mg/kg, mean

SMILES: CNCc1ccc(C[C@H](NC(C)=O)c2nnc(-c3cccc(OC(F)(F)F)c3)s2)cc1 [Compound 42140, N-(2-(4-((methylamino)methyl)phenyl)-1-(5-(3-(trifluoromethoxy)phenyl)-1,3,4-thiadiazol-2-yl)ethyl)acetamide]
- concentration at 1 h [1]: 129 ng/mL
- concentration at 1 h [2]: 136 ng/mL
- concentration at 1 h [3]: 127 ng/mL
- concentration at 2 h [4]: 139 ng/mL
- concentration at 2 h [1]: 140 ng/mL
- concentration at 2 h [2]: 175 ng/mL
- concentration at 2 h [3]: 151 ng/mL
- concentration at 4 h [4]: 103 ng/mL
- concentration at 4 h [1]: 112 ng/mL
- concentration at 4 h [2]: 123 ng/mL
- concentration at 4 h [3]: 113 ng/mL
- concentration at 8 h [4]: 72.7 ng/mL
- concentration at 8 h [1]: 91.4 ng/mL
- concentration at 8 h [2]: 93.5 ng/mL
- concentration at 8 h [3]: 85.9 ng/mL
- concentration at 24 h [4]: 29.8 ng/mL
- concentration at 24 h [1]: 22.7 ng/mL
- concentration at 24 h [2]: 29.6 ng/mL
- concentration at 24 h [3]: 27.4 ng/mL
- AUC(0-inf) (Table 6, PO Dose: 5 mg/kg, Mouse 4, read-out: AUCInf): 2110 ng·h/mL
- AUC(0-t) (Table 6, PO Dose: 5 mg/kg, Mouse 4, read-out: AUClast): 1620 ng·h/mL
- Cmax (Table 6, PO Dose: 5 mg/kg, Mouse 4, read-out: Cmax): 139 ng/mL
- MRT inf (Table 6, PO Dose: 5 mg/kg, Mouse 4, read-out: MRTInf—obs): 15.8 h
- half-life (Table 6, PO Dose: 5 mg/kg, Mouse 4, read-out: T1/2 (converted)): 690 min
- AUC(0-inf) (Table 6, PO Dose: 5 mg/kg, Mouse 5, read-out: AUCInf): 2060 ng·h/mL
- AUC(0-t) (Table 6, PO Dose: 5 mg/kg, Mouse 5, read-out: AUClast): 1790 ng·h/mL
- Cmax (Table 6, PO Dose: 5 mg/kg, Mouse 5, read-out: Cmax): 140 ng/mL
- MRT inf (Table 6, PO Dose: 5 mg/kg, Mouse 5, read-out: MRTInf—obs): 11.4 h
- half-life (Table 6, PO Dose: 5 mg/kg, Mouse 5, read-out: T1/2 (converted)): 508 min
- AUC(0-inf) (Table 6, PO Dose: 5 mg/kg, Mouse 6, read-out: AUCInf): 2380 ng·h/mL
- AUC(0-t) (Table 6, PO Dose: 5 mg/kg, Mouse 6, read-out: AUClast): 1960 ng·h/mL
- Cmax (Table 6, PO Dose: 5 mg/kg, Mouse 6, read-out: Cmax): 175 ng/mL
- MRT inf (Table 6, PO Dose: 5 mg/kg, Mouse 6, read-out: MRTInf—obs): 13.1 h
- half-life (Table 6, PO Dose: 5 mg/kg, Mouse 6, read-out: T1/2 (converted)): 583 min
- AUC(0-inf) (Table 6, PO Dose: 5 mg/kg, mean, read-out: AUCInf, Mean): 2190 ng·h/mL
- AUC(0-t) (Table 6, PO Dose: 5 mg/kg, mean, read-out: AUClast, Mean): 1790 ng·h/mL
- Cmax (Table 6, PO Dose: 5 mg/kg, mean, read-out: Cmax, Mean): 151 ng/mL
- MRT inf (Table 6, PO Dose: 5 mg/kg, mean, read-out: MRTInf—obs, Mean): 13.4 h
- half-life (Table 6, PO Dose: 5 mg/kg, mean, read-out: T1/2, Mean (converted)): 594 min
- Tmax (CD1, plasma, Table 6, PO Dose: 5 mg/kg, Mouse 4): 2 h
- AUClast/D [5]: 462 h·ng/mL per mg/kg
- AUC—% Extrap—obs [5]: 17.0%
- Cl_obs [5]: 29.9 mL/min/kg
- AUClast/D [6]: 389 h·ng/mL per mg/kg
- AUC—% Extrap—obs [6]: 19.8%
- Cl_obs [6]: 34.3 mL/min/kg
- AUClast/D [7]: 394 h·ng/mL per mg/kg
- AUC—% Extrap—obs [7]: 11.6%
- Cl_obs [7]: 37.4 mL/min/kg
- AUClast/D, Mean [8]: 415 h·ng/mL per mg/kg
- AUC—% Extrap—obs, Mean [8]: 16.1%
- C0, Mean [8]: 101 ng/mL
- Cl_obs, Mean [8]: 33.9 mL/min/kg
- AUClast/D [9]: 324 h·ng/mL per mg/kg
- AUC—% Extrap—obs [9]: 23.4%
- F [9]: 78.0%
- AUClast/D [10]: 358 h·ng/mL per mg/kg
- AUC—% Extrap—obs [10]: 13.4%
- F [10]: 83.3%
- AUClast/D [11]: 393 h·ng/mL per mg/kg
- AUC—% Extrap—obs [11]: 17.4%
- F [11]: 95.9%
- AUClast/D, Mean [12]: 358 h·ng/mL per mg/kg
- AUC—% Extrap—obs, Mean [12]: 18.1%
- F, Mean [12]: 85.7%
